Tests used:
[1] = NADPH-dependent microsomal conversion, Michaelis-Menten kinetics (HLM); type: in vitro ADME, human; conditions: HLM 0.5 mg/mL protein, SH045 0.5 to 100 µM, Lineweaver-Burk
Description: For determination of vmax and Michaelis-Menten constant Km of the NADPH-dependent microsomal depletion of SH045, incubations in MLM and HLM were performed. Testosterone instead of SH045 was used as positive control (Supplementary Materials SM6).
Negative controls were obtained by omission of respective components. The overall velocity (v) of degradation was calculated from altered SH045 concentration (∆c) obtained from reduction peak area ratio of SH045 as: v = ∆c/incubation time × concentration of enzyme (nmol/min × mg). Mean maximum rate vmax and Km were calculated using Lineweaver-Burk transformation. […]
The tissue binding of SH045 was analyzed exemplarily in lung, liver and kidney homogenate using ultrafiltration [5]. […] 20 µL of the mixture and the filtrate were analyzed for SH045. […]
Testosterone (10 µM in ACN/DPBS 2/3, v/v) instead of SH045 was used as positive control and analyzed by an appropriate HPLC method with UV detection.
Negative controls contained either no NADPH, no MLM or HLM or none of them. The overall velocity (v) of degradation was calculated from altered SH045 concentration (∆c) obtained from reduction peak area ratio of SH045 as: v = ∆c / incubation time × concentration of enzyme × volume (nmol/ min × mg). Mean maximum rate vmax and Michaelis-Menten constant Km were calculated using Lineweaver-Burk transformation. […]

[2] = tested on: TRPC6; set-up: method as in PMID 29522264; conditions: in vitro; cited from earlier work

For `C=C[C@@](C)(O)CC[C@H]1C(=C)C[C@H](OC(=O)NC)[C@H]2C(C)(C)CCC[C@]12C` [SH045, (1S,4S,4aR,8aS)-4-((S)-3-Hydroxy-3-methylpent-4-en-1-yl)-4a,8,8-trimethyl-3-methylenedecahydronaphthalen-1-yl methylcarbamate], the vmax [1] is given as 0.8 ± 0.1 nmol/min/mg, the Km at 10 min ([1]; human, human liver microsomes) is given as 4.1 ± 0.8 µM and the IC50 [2] is given as 5.8 nM.

Source: publication PMC8998618, “A Pharmacokinetic and Metabolism Study of the TRPC6 Inhibitor SH045 in Mice by LC-MS/MS” (International Journal of Molecular Sciences, 2022)
